From patent US4018801A, “Substituted oxirane compounds” (The Dow Chemical Company, priority 1975, dated 1977)

Assays:
Format in all cases: in vivo
Barnyard Grass [1] = test: Pre-emergent control of seed germination, soil drench; settings: Barnyard Grass, about 2 weeks
In short: (§1)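 Compound formulated with Span 85/Tween 80 in acetone, dispersed in water, and applied as a soil drench to seeded beds at 1.0, 2.0 and 5.0 lb/acre (about 1.6, 3.2, 8.0 ppm soil); lower concentrations also tested. Germination control scored versus untreated checks after about 2 weeks.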

Pigweeds = test: as above; settings: Pig Weeds, about 2 weeks
In short: as §1

Yellow Foxtail [2] = test: as above; settings: Yellow Foxtail, about 2 weeks
In short: as §1

Cultured Rice [3] = test: as above; settings: about 2 weeks
Description: (§2) Four parts by weight of the compound, 0.08 part of sorbitan trioleate (Span 85), and 0.02 part of a sorbitan monooleate polyoxyethylene derivative (Tween 80) are dipersed in 40 milliliters of acetone to produce a concentrate composition in the form of a water-dispersible liquid containing the predetermined oxirane compound as the sole active agent.
(§3) A portion of each of these concentrate compositions were separately dispersed in portions of water to provide aqueous compositions, containing 0.44 pound of the oxirane compound per 100 gallons of ultimate aqueous mixture.
(§4) The aqueous compositions were then employed for the treatment of seed beds of good agricultural soil which had been prepared and seeded with the seeds of various grass species and broadleaf plants. The grass species included white winter wheat, cultured rice, pigweeds, crabgrass, cheat grass, wild oats, Johnson grass, barnyard grass and yellow foxtail; and the broadleaf plants included corn. In the treating operations, a predetermined quantity of each of the compositions was applied to separate seedbeds as a soil drench at a rate of about 0.43 acre inch of aqueous composition per acre. The quantities were controlled to supply a substantial uniform dosage in a seedbed equivalent to 1.0, 2.0 and 5.0 pounds of the oxirane compound per acre. These dosages correspond, respectively, to a concentration, within the soil depth penetrated of about 1.6, 3.2 and 8.0 parts by weight of the oxirane compound per million parts by weight of soil. Other seedbeds were similarly seeded with the named plant species but were left untreated to serve as checks.
(§5) After about 2 weeks the seedbeds were examined to ascertain what control of the growth of seeds had been obtained.
(§6) An aqueous composition containing 2-(α,α,α -trifluoro-m-tolyl)-2-(2,2,2-trichloroethyl)oxirane was prepared as described in Example 32. The composition was then employed according to the procedures of Example 32 except that lower concentrations of the oxirane compound were employed in the composition.
(§7) The percent control of the various plant species at the employed dosage rate of the 2-(α,α,α-trifluoro-m-tolyl)- 2-(2,2,2-trichloroethyl) supplied by the composition is set forth in the following Table IV.

White Winter Wheat [4] = test: as above; settings: about 2 weeks
Description: as §2, §3, §4, §5, §6, §7

Corn [5] = test: as above; settings: about 2 weeks
Description: as §2, §3, §4
After about 2 weeks the seedbeds were examined to ascertain what control of the growth of seeds had been obtained. […]
as §6, §7

Barnyard Grass [6] = test: Post-emergent control, foliage spray; settings: about two weeks
Procedure: (§8) An aqueous composition containing 2-(m-bromophenyl)- 2-(2,2,2-trichloroethyl)oxirane was prepared as described in Example 32. Separate portions of this composition were thereafter dispersed in a further quantity of water to prepare aqueous spray compositions containing 250, 500, 1000, 2000 and 4000 parts, respectively of the compound per million parts by weight of ultimate treating composition. These compositions were applied as foliage sprays to various grass and broadleaf plant species, the plants being of two to four inches in height and growing in seed beds. The treatments were carried out with conventional spray equipment, the plants being sprayed to the point of run-off. Similar beds of the plant species were left untreated to serve as checks. After about two weeks, the beds were examined to ascertain what control of the growth of plants had been obtained. The plant species employed, together with the percent control obtained at the employed dosage rate of the composition is set forth in the following Table V.

Corn [7] = test: Post-emergent control, foliage spray; settings: about two weeks
Procedure: as §8

Cotton = test: Post-emergent control, foliage spray; settings: about two weeks
Procedure: as §8

Crabgrass = test: Post-emergent control, foliage spray; settings: about two weeks
Procedure: as §8

Cultured Rice [8] = test: Post-emergent control, foliage spray; settings: about two weeks
Procedure: as §8

Johnson Grass = test: Post-emergent control, foliage spray; settings: about two weeks
Procedure: as §8

Pinto Beans = test: Post-emergent control, foliage spray; settings: about two weeks
Procedure: as §8

Soybean = test: Post-emergent control, foliage spray; settings: about two weeks
Procedure: as §8

White Winter Wheat [9] = test: Post-emergent control, foliage spray; settings: about two weeks
Procedure: as §8

Wild Oats = test: Post-emergent control, foliage spray; settings: about two weeks
Procedure: as §8

Yellow Foxtail [10] = test: Post-emergent control, foliage spray; settings: about two weeks
Procedure: as §8

For `ClC(Cl)(Cl)CC1(c2cccc(Br)c2)CO1` (stereo not drawn) [Example 3, 2-(m-bromophenyl)-2-(2,2,2-trichloroethyl)oxirane], the “Percent Pre-Emergent Control of Seed Germination” value (“Percent Pre-Emergent Control” below) (Barnyard Grass [1]; 1.0 pounds per surface acre) was 95%, the “Percent Pre-Emergent Control” value (Barnyard Grass [1]; 2.0 pounds per surface acre) was 95% and the “Percent Pre-Emergent Control” value (Barnyard Grass [1]; 5.0 pounds per surface acre) was 95%. The “Percent Pre-Emergent Control” value (Pigweeds; 1.0 pounds per surface acre) was 95%, the “Percent Pre-Emergent Control” value (Pigweeds; 2.0 pounds per surface acre) was 100% and the “Percent Pre-Emergent Control” value (Pigweeds; 5.0 pounds per surface acre) was 100%. For the same compound, the “Percent Pre-Emergent Control” value (Yellow Foxtail [2]; 1.0 pounds per surface acre) was 100%, the “Percent Pre-Emergent Control” value (Yellow Foxtail [2]; 2.0 pounds per surface acre) was 100% and the “Percent Pre-Emergent Control” value (Yellow Foxtail [2]; 5.0 pounds per surface acre) was 95%. For the same compound, the “Percent Pre-Emergent Control” value (Cultured Rice [3]; 2.0 pounds per surface acre) was 100%, the “Percent Pre-Emergent Control” value (Cultured Rice [3]; 5.0 pounds per surface acre) was 100% and the “Percent Pre-Emergent Control” value (White Winter Wheat [4]; 1.0 pounds per surface acre) was 100%. For the same compound, the “Percent Pre-Emergent Control” value (White Winter Wheat [4]; 2.0 pounds per surface acre) was 100%, the “Percent Pre-Emergent Control” value (White Winter Wheat [4]; 5.0 pounds per surface acre) was 100% and the “Percent Pre-Emergent Control” value (Corn [5]; 1.0 pounds per surface acre) was 30%. For the same compound, the “Percent Pre-Emergent Control” value (Corn [5]; 2.0 pounds per surface acre) was 95%, the “Percent Pre-Emergent Control” value (Corn [5]; 5.0 pounds per surface acre) was 95% and the “Percent Post-Emergent Control of Seed Germination” value (from here on “Percent Post-Emergent Control”) (Barnyard Grass [6]; 250 parts per million) was 95%. The “Percent Post-Emergent Control” value (Barnyard Grass [6]; 500 parts per million) was 95%, the “Percent Post-Emergent Control” value (Barnyard Grass [6]; 1000 parts per million) was 95% and the “Percent Post-Emergent Control” value (Barnyard Grass [6]; 2000 parts per million) was 95%. For the same compound, the “Percent Post-Emergent Control” value (Barnyard Grass [6]; 4000 parts per million) was 95%, the “Percent Post-Emergent Control” value (Corn [7]; 250 parts per million) was 0% and the “Percent Post-Emergent Control” value (Corn [7]; 500 parts per million) was 30%. For the same compound, the “Percent Post-Emergent Control” value (Corn [7]; 1000 parts per million) was 50%, the “Percent Post-Emergent Control” value (Corn [7]; 2000 parts per million) was 95% and the “Percent Post-Emergent Control” value (Corn [7]; 4000 parts per million) was 95%. The “Percent Post-Emergent Control” value (Cotton; 250 parts per million) was 0%, the “Percent Post-Emergent Control” value (Cotton; 500 parts per million) was 0% and the “Percent Post-Emergent Control” value (Cotton; 1000 parts per million) was 50%. For the same compound, the “Percent Post-Emergent Control” value (Cotton; 2000 parts per million) was 50%, the “Percent Post-Emergent Control” value (Cotton; 4000 parts per million) was 65% and the “Percent Post-Emergent Control” value (Crabgrass; 250 parts per million) was 30%. The “Percent Post-Emergent Control” value (Crabgrass; 500 parts per million) was 65%, the “Percent Post-Emergent Control” value (Crabgrass; 1000 parts per million) was 95% and the “Percent Post-Emergent Control” value (Crabgrass; 2000 parts per million) was 95%. The “Percent Post-Emergent Control” value (Crabgrass; 4000 parts per million) was 95%, the “Percent Post-Emergent Control” value (Cultured Rice [8]; 250 parts per million) was 0% and the “Percent Post-Emergent Control” value (Cultured Rice [8]; 500 parts per million) was 0%. For the same compound, the “Percent Post-Emergent Control” value (Cultured Rice [8]; 1000 parts per million) was 0%, the “Percent Post-Emergent Control” value (Cultured Rice [8]; 2000 parts per million) was 40% and the “Percent Post-Emergent Control” value (Cultured Rice [8]; 4000 parts per million) was 50%. For the same compound, the “Percent Post-Emergent Control” value (Johnson Grass; 250 parts per million) was 95%, the “Percent Post-Emergent Control” value (Johnson Grass; 500 parts per million) was 95% and the “Percent Post-Emergent Control” value (Johnson Grass; 1000 parts per million) was 95%. The “Percent Post-Emergent Control” value (Johnson Grass; 2000 parts per million) was 95%, the “Percent Post-Emergent Control” value (Johnson Grass; 4000 parts per million) was 95% and the “Percent Post-Emergent Control” value (Pinto Beans; 250 parts per million) was 50%. For the same compound, the “Percent Post-Emergent Control” value (Pinto Beans; 500 parts per million) was 50%, the “Percent Post-Emergent Control” value (Pinto Beans; 1000 parts per million) was 50% and the “Percent Post-Emergent Control” value (Pinto Beans; 2000 parts per million) was 75%. For the same compound, the “Percent Post-Emergent Control” value (Pinto Beans; 4000 parts per million) was 75%, the “Percent Post-Emergent Control” value (Soybean; 250 parts per million) was 30% and the “Percent Post-Emergent Control” value (Soybean; 500 parts per million) was 30%. For the same compound, the “Percent Post-Emergent Control” value (Soybean; 1000 parts per million) was 50%, the “Percent Post-Emergent Control” value (Soybean; 2000 parts per million) was 75% and the “Percent Post-Emergent Control” value (Soybean; 4000 parts per million) was 85%. For the same compound, the “Percent Post-Emergent Control” value (White Winter Wheat [9]; 250 parts per million) was 0%, the “Percent Post-Emergent Control” value (White Winter Wheat [9]; 500 parts per million) was 0% and the “Percent Post-Emergent Control” value (White Winter Wheat [9]; 1000 parts per million) was 50%. For the same compound, the “Percent Post-Emergent Control” value (White Winter Wheat [9]; 2000 parts per million) was 50%, the “Percent Post-Emergent Control” value (White Winter Wheat [9]; 4000 parts per million) was 50% and the “Percent Post-Emergent Control” value (Wild Oats; 250 parts per million) was 50%. The “Percent Post-Emergent Control” value (Wild Oats; 500 parts per million) was 70%, the “Percent Post-Emergent Control” value (Wild Oats; 1000 parts per million) was 85% and the “Percent Post-Emergent Control” value (Wild Oats; 2000 parts per million) was 85%. For the same compound, the “Percent Post-Emergent Control” value (Wild Oats; 4000 parts per million) was 95%, the “Percent Post-Emergent Control” value (Yellow Foxtail [10]; 250 parts per million) was 40% and the “Percent Post-Emergent Control” value (Yellow Foxtail [10]; 500 parts per million) was 95%. For the same compound, the “Percent Post-Emergent Control” value (Yellow Foxtail [10]; 1000 parts per million) was 95%, the “Percent Post-Emergent Control” value (Yellow Foxtail [10]; 2000 parts per million) was 95% and the “Percent Post-Emergent Control” value (Yellow Foxtail [10]; 4000 parts per million) was 95%.
